Assay results from US20260355212A1 (priority 2022, published 2026).
Read-outs that look alike come from different tables or passages of the source.

Columns and labels:
HCoV-229E Mpro = HCoV-229E Mpro (Human coronavirus 229E, UniProt P0C6X1); assay: HCoV-229E Mpro enzymatic inhibition assay (fluorescence); format: biochemical
Protocol: (§1) The hCoV Mpro are cloned, expressed in E. coli and purified by WuXi AppTec Co., Ltd. The substrate are synthesized by Genscript Biotech.
(§2) Compounds are 3 fold serially diluted for 10 doses and added to an assay plate (384w format) using ECHO, in duplicate wells. The test concentration of test compounds is defined by sponsor. […] For no inhibition control (ZPE, zero percent effect), DMSO is added.
(§3) 25 μL of Mpro proteins are added to the assay plates containing compounds, respectively, using Multidrop. The compounds and Mpro proteins are pre-incubated at room temperature for 30 min. Then 5 µL of Mpro substrates are added to the related assay plates, respectively. Each activity testing point has a relevant background control to normalize the fluorescence interference of compound.
(§4) After 60 min incubation at 30° C., the fluorescence signal (RFU) is detected using a microplate reader M2e (SpectraMax) at Ex/Em=340 nm/490 nm.
(§5) The inhibition activity is calculated using the formula below, IC50 values will be calculated using the Inhibition % data.
(§6) Inhibition %=[(CPD−BGCPD)−(ZPE−BGZPE)/(HPE−BGHPE)−(ZPE−BGZPE)]×[…] • CPD: Signal of test compounds wells, containing compound+enzyme+substrate. • ZPE: Average of signals of zero percent effective control wells, containing enzyme+substrate, no compound. • HPE: Average of signals of hundred percent effect control wells, containing GC376+enzyme+substrate. • BG: Compound background control wells, containing compound+substrate, no enzyme
(§7) IC50 values of compounds are calculated with the GraphPad Prism software using the nonlinear regression model of log(inhibitor) vs. response—Variable slope (four parameters).

HCoV-HKU1 Mpro = HCoV-HKU1 Mpro (Human coronavirus HKU1, UniProt P0C6X2); assay: HCoV-HKU1 Mpro enzymatic inhibition assay (fluorescence); format: biochemical
Protocol: as §1, §2, §3, §4, §5, §6, §7

HCoV-NL63 Mpro = HCoV-NL63 Mpro (Human coronavirus NL63, UniProt P0C6X5); assay: HCoV-NL63 Mpro enzymatic inhibition assay (fluorescence); format: biochemical
Protocol: as §1, §2, §3, §4, §5, §6, §7

SARS-CoV-1 Mpro = SARS-CoV-1 Mpro (Severe acute respiratory syndrome coronavirus, UniProt P0C6X7); assay: biochemical
SARS-CoV-2 Mpro = SARS-CoV-2 Mpro (Severe acute respiratory syndrome coronavirus 2, UniProt P0DTD1); assay: SARS-CoV-2 Mpro enzymatic inhibition assay (fluorescence); format: biochemical
Protocol: as §1
Compounds are 3 fold serially diluted for 10 doses and added to an assay plate (384w format) using ECHO, in duplicate wells. The test concentration of test compounds is defined by sponsor.
25 μL of Mpro proteins are added to the assay plates containing compounds, respectively, using Multidrop. The compounds and Mpro proteins are pre-incubated at room temperature for 30 min. Then 5 µL of Mpro substrates are added to the related assay plates, respectively.
as §4, §5, §7

MERS Mpro = MERS Mpro (Middle East respiratory syndrome-related coronavirus, UniProt K9N7C7); assay: biochemical; design: species or system MERS-CoV
HCoV-OC43 Mpro = HCoV-OC43 Mpro (Human coronavirus OC43, UniProt P0C6X6); assay: HCoV-OC43 Mpro enzymatic inhibition assay (fluorescence); format: biochemical
Protocol: as §1, §2, §3, §4, §5, §6, §7

Chain of HCoV-HKU1 Mpro (P0C6X2 3335-3637 limits assumed): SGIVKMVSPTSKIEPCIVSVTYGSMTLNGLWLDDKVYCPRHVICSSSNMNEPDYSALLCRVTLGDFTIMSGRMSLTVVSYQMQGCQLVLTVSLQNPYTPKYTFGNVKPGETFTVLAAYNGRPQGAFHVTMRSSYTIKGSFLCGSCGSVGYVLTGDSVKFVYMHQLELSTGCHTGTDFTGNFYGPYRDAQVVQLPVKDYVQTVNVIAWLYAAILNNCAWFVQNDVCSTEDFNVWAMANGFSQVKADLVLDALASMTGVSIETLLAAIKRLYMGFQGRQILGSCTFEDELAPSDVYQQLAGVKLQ
Chain of HCoV-NL63 Mpro (P0C6X5 2940-3242 limits assumed): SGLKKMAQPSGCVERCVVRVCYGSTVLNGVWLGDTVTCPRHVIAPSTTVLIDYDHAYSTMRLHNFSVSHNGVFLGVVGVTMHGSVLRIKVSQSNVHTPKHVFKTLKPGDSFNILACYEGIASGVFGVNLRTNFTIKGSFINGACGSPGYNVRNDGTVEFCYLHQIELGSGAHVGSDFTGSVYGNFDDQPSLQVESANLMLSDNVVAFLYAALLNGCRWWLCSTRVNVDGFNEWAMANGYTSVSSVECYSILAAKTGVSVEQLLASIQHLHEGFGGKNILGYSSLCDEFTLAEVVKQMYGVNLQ
Chain of MERS Mpro (K9N7C7 3248-3553 limits assumed): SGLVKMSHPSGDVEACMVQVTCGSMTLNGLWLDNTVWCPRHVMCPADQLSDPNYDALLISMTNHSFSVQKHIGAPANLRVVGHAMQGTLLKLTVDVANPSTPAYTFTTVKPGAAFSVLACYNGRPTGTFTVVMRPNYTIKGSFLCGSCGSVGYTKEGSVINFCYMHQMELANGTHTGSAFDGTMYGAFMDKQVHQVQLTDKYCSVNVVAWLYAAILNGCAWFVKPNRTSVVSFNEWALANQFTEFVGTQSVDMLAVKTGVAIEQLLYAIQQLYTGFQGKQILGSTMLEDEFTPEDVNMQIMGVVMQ
Chain of HCoV-OC43 Mpro (P0C6X6 3247-3549 limits assumed): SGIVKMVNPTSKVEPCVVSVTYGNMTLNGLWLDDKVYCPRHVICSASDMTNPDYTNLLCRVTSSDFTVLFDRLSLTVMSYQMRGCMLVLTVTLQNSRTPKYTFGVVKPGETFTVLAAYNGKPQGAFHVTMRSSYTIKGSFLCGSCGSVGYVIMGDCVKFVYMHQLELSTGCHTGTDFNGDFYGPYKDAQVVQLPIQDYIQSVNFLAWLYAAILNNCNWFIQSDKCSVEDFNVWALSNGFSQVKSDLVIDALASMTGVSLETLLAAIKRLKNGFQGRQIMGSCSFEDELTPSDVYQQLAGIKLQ
Chain of HCoV-229E Mpro (P0C6X1 2966-3267 limits assumed): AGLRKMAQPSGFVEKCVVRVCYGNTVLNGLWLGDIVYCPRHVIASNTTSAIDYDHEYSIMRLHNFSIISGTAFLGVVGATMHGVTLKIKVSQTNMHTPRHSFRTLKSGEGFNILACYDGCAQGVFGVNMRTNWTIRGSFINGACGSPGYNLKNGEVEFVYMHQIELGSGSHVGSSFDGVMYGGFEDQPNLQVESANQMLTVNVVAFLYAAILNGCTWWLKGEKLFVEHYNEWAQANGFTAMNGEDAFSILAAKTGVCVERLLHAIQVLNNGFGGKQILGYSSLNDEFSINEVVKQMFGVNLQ

CC1(C)[C@@H]2[C@@H](C(=O)N[C@H](C=O)C[C@@H]3CCNC3=O)N(C(=O)C3(c4ccccc4)CC3)C[C@@H]21 [Compound 1, (1R,2S,5S)-6,6-dimethyl-N—((S)-1-oxo-3-((S)-2-oxopyrrolidin-3-yl)propan-2-yl)-3-(1-phenylcyclopropanecarbonyl)-3-azabicyclo[3.1.0]hexane-2-carboxamide]
IC50 (HCoV-229E Mpro): 32.4 nM
IC50 (HCoV-HKU1 Mpro): 11.4 nM
IC50 (HCoV-NL63 Mpro): 73.7 nM
IC50 (SARS-CoV-1 Mpro): 17.3 nM
IC50 (SARS-CoV-2 Mpro): 9.53 nM
IC50 (MERS Mpro): 129 nM
IC50 (HCoV-OC43 Mpro): 28.4 nM

O=C[C@H](C[C@@H]1CCNC1=O)NC(=O)[C@@H]1CC2(CC2)CN1C(=O)c1cc2cccc(Cl)c2[nH]1 [Compound 2, (S)-5-(7-chloro-1H-indole-2-carbonyl)-N—((S)-1-oxo-3-((S)-2-oxopyrrolidin-3-yl)propan-2-yl)-5-azaspiro[2.4]heptane-6-carboxamide]
IC50 (HCoV-229E Mpro): 32.6 nM
IC50 (HCoV-HKU1 Mpro): 10.4 nM
IC50 (HCoV-NL63 Mpro): 48.4 nM
IC50 (SARS-CoV-1 Mpro): 42.5 nM
IC50 (SARS-CoV-2 Mpro): 9.84 nM
IC50 (MERS Mpro): 199 nM
IC50 (HCoV-OC43 Mpro): 38.2 nM

O=C[C@H](C[C@@H]1CCNC1=O)NC(=O)[C@@H]1CC2(CC2)CN1C(=O)c1cc2c(F)cccc2[nH]1 [Compound 3, (S)-5-(4-fluoro-1H-indole-2-carbonyl)-N—((S)-1-oxo-3-((S)-2-oxopyrrolidin-3-yl)propan-2-yl)-5-azaspiro[2.4]heptane-6-carboxamide]
IC50 (HCoV-229E Mpro): 27.4 nM
IC50 (HCoV-HKU1 Mpro): 9.95 nM
IC50 (HCoV-NL63 Mpro): 17.8 nM
IC50 (SARS-CoV-1 Mpro): 19.3 nM
IC50 (SARS-CoV-2 Mpro): 10.1 nM
IC50 (MERS Mpro): 110 nM
IC50 (HCoV-OC43 Mpro): 25 nM

CC1(C)[C@@H]2[C@@H](C(=O)N[C@H](C=O)C[C@@H]3CCNC3=O)N(C(=O)c3cc4ccc(F)c(F)c4[nH]3)C[C@@H]21 [Compound 4, (1R,2S,5S)-3-(6,7-difluoro-1H-indole-2-carbonyl)-6,6-dimethyl-N—((S)-1-oxo-3-((S)-2-oxopyrrolidin-3-yl)propan-2-yl)-3-azabicyclo[3.1.0]hexane-2-carboxamide]
IC50 (HCoV-229E Mpro): 28.5 nM
IC50 (HCoV-HKU1 Mpro): 26.8 nM
IC50 (HCoV-NL63 Mpro): 34.4 nM
IC50 (SARS-CoV-1 Mpro): 23.6 nM
IC50 (SARS-CoV-2 Mpro): 10.2 nM
IC50 (MERS Mpro): 198 nM
IC50 (HCoV-OC43 Mpro): 40.8 nM

CC1(C)[C@@H]2[C@@H](C(=O)N[C@H](C=O)C[C@@H]3CCNC3=O)N(C(=O)c3cc4cccc(Cl)c4[nH]3)C[C@@H]21 [Compound 5, (1R,2S,5S)-3-(7-chloro-1H-indole-2-carbonyl)-6,6-dimethyl-N—((S)-1-oxo-3-((S)-2-oxopyrrolidin-3-yl)propan-2-yl)-3-azabicyclo[3.1.0]hexane-2-carboxamide]
IC50 (HCoV-229E Mpro): 33.9 nM
IC50 (HCoV-HKU1 Mpro): 22 nM
IC50 (HCoV-NL63 Mpro): 53.5 nM
IC50 (SARS-CoV-1 Mpro): 22.5 nM
IC50 (SARS-CoV-2 Mpro): 10.5 nM
IC50 (MERS Mpro): 147 nM
IC50 (HCoV-OC43 Mpro): 42.1 nM

CC1(C)[C@@H]2[C@@H](C(=O)N[C@H](C=O)C[C@@H]3CCNC3=O)N(C(=O)c3cc4cccc(F)c4[nH]3)C[C@@H]21 [Compound 6, (1R,2S,5S)-3-(7-fluoro-1H-indole-2-carbonyl)-6,6-dimethyl-N—((S)-1-oxo-3-((S)-2-oxopyrrolidin-3-yl)propan-2-yl)-3-azabicyclo[3.1.0]hexane-2-carboxamide]
IC50 (HCoV-229E Mpro): 31.1 nM
IC50 (HCoV-HKU1 Mpro): 25.1 nM
IC50 (HCoV-NL63 Mpro): 38.3 nM
IC50 (SARS-CoV-1 Mpro): 19.5 nM
IC50 (SARS-CoV-2 Mpro): 10.8 nM
IC50 (MERS Mpro): 168 nM
IC50 (HCoV-OC43 Mpro): 38.8 nM

Cc1cccc([C@@H](C)C(=O)N2C[C@H]3[C@@H]([C@H]2C(=O)N[C@H](C=O)C[C@@H]2CCNC2=O)C3(C)C)c1 [Compound 7, (1R,2S,5S)-6,6-dimethyl-N—((S)-1-oxo-3-((S)-2-oxopyrrolidin-3-yl)propan-2-yl)-3-((R)-2-(m-tolyl)propanoyl)-3-azabicyclo[3.1.0]hexane-2-carboxamide]
IC50 (HCoV-229E Mpro): 22 nM
IC50 (HCoV-HKU1 Mpro): 9.2 nM
IC50 (HCoV-NL63 Mpro): 33.6 nM
IC50 (SARS-CoV-1 Mpro): 12.9 nM
IC50 (SARS-CoV-2 Mpro; mean, 25 nM protein, 25 μM substrate, 30 min pre-incubation, 60 min at 30° C., read-out: Mpro_SARS-CoV-2 mean IC50): 11 nM
IC50 (MERS Mpro): 81 nM
IC50 (HCoV-OC43 Mpro): 26.6 nM

CC1(C)[C@@H]2[C@@H](C(=O)N[C@H](C=O)C[C@@H]3CCNC3=O)N(C(=O)C3(c4cccc(Cl)c4)CC3)C[C@@H]21 [Compound 8, (1R,2S,5S)-3-(1-(3-chlorophenyl)cyclopropanecarbonyl)-6,6-dimethyl-N—((S)-1-oxo-3-((S)-2-oxopyrrolidin-3-yl)propan-2-yl)-3-azabicyclo[3.1.0]hexane-2-carboxamide]
IC50 (HCoV-229E Mpro): 21.8 nM
IC50 (HCoV-HKU1 Mpro): 7.74 nM
IC50 (HCoV-NL63 Mpro): 37.6 nM
IC50 (SARS-CoV-1 Mpro): 11.9 nM
IC50 (SARS-CoV-2 Mpro): 11.3 nM
IC50 (MERS Mpro): 88.7 nM
IC50 (HCoV-OC43 Mpro): 18.9 nM

CC1(C)C[C@@H](C(=O)N[C@H](C=O)C[C@@H]2CCNC2=O)N(C(=O)c2cc3cccc(Cl)c3[nH]2)C1 [Compound 9, (S)-1-(7-chloro-1H-indole-2-carbonyl)-4,4-dimethyl-N—((S)-1-oxo-3—((S)-2-oxopyrrolidin-3-yl)propan-2-yl)pyrrolidine-2-carboxamide]
IC50 (HCoV-229E Mpro): 30.9 nM
IC50 (HCoV-HKU1 Mpro): 20.5 nM
IC50 (HCoV-NL63 Mpro): 52.3 nM
IC50 (SARS-CoV-1 Mpro): 37.8 nM
IC50 (SARS-CoV-2 Mpro): 12.1 nM
IC50 (MERS Mpro): 313 nM
IC50 (HCoV-OC43 Mpro): 65.1 nM

CC(C)(C)[C@H](NC(=O)C(F)(F)F)C(=O)N1C[C@H]2[C@@H]([C@H]1C(=O)N[C@H](C=O)C[C@@H]1CCNC1=O)C2(C)C [Compound 12, (1R,2S,5S)-3-((S)-3,3-dimethyl-2-(2,2,2-trifluoroacetamido)butanoyl)-6,6-dimethyl-N—((S)-1-oxo-3-((S)-2-oxopyrrolidin-3-yl)propan-2-yl)-3-azabicyclo[3.1.0]hexane-2-carboxamide]
IC50 (HCoV-229E Mpro): 33.8 nM
IC50 (HCoV-HKU1 Mpro): 15 nM
IC50 (HCoV-NL63 Mpro): 53.9 nM
IC50 (SARS-CoV-1 Mpro): 21.2 nM
IC50 (MERS Mpro): 175 nM
IC50 (HCoV-OC43 Mpro): 37 nM

CC(C)(C)NC(=O)N[C@H](C(=O)N1C[C@H]2[C@@H]([C@H]1C(=O)N[C@@H](C[C@@H]1CCNC1=O)C(=O)C(N)=O)C2(C)C)C(C)(C)C [Compound 50, (1R, 2S, 5S)—N—((S)-4-amino-3,4-dioxo-1-((S)-2-oxopyrrolidin-3-yl)butan-2-yl)-3-((S)-2-(3-(tert-butyl)ureido)-3,3-dimethylbutanoyl)-6,6-dimethyl-3-azabicyclo[3.1.0]hexane-2-carboxamide]
IC50 (HCoV-229E Mpro): 130 nM
IC50 (HCoV-HKU1 Mpro): 34.2 nM
IC50 (HCoV-NL63 Mpro): 256 nM
IC50 (SARS-CoV-1 Mpro): 46.9 nM
IC50 (MERS Mpro): 621 nM
IC50 (HCoV-OC43 Mpro): 171 nM

CC1(C)[C@@H]2[C@@H](C(=O)N[C@H](C=O)C[C@@H]3CCNC3=O)N(C(=O)CC3CCCCC3)C[C@@H]21 [Compound 54, (1R,2S,5S)-3-(2-Cyclohexylacetyl)-6,6-dimethyl-N—((S)-1-oxo-3-((S)-2-oxopyrrolidin-3-yl)propan-2-yl)-3-azabicyclo[3.1.0]hexane-2-carboxamide]
IC50 (HCoV-229E Mpro; read-out: Mpro_229E mean IC50, mean, 50 nM protein, 12.5 μM substrate, 30 min pre-incubation, 60 min at 30° C.): 36.4 nM
IC50 (HCoV-HKU1 Mpro; read-out: Mpro_HKU1 mean IC50, mean, 12.5 nM protein, 12.5 μM substrate, 30 min pre-incubation, 60 min at 30° C.): 18.8 nM
IC50 (HCoV-NL63 Mpro; read-out: Mpro_NL63 mean IC50, mean, 50 nM protein, 12.5 μM substrate, 30 min pre-incubation, 60 min at 30° C.): 42.6 nM
IC50 (SARS-CoV-1 Mpro; read-out: Mpro_SARS-CoV-1 mean IC50, mean, 25 nM protein (SARS_Mpro), 25 μM substrate, 30 min pre-incubation, 60 min at 30° C.): 37.8 nM
IC50 (MERS Mpro; read-out: Mpro_MERS mean IC50, mean, 100 nM protein, 25 μM substrate, 30 min pre-incubation, 60 min at 30° C.): 285 nM
IC50 (HCoV-OC43 Mpro; read-out: Mpro_OC43 mean IC50, mean, 25 nM protein, 12.5 μM substrate, 30 min pre-incubation, 60 min at 30° C.): 56.7 nM

O=C[C@H](C[C@@H]1CCNC1=O)NC(=O)[C@@H]1[C@H]2CCC[C@H]2CN1C(=O)COc1ccc(Cl)cc1Cl [Compound 63, (1S,3aR,6aS)-2-(2-(2,4-Dichlorophenoxy)acetyl)-N—((S)-1-oxo-3-((S)-2-oxopyrrolidin-3-yl)propan-2-yl)octahydrocyclopenta[c]pyrrole-1-carboxamide]
IC50 (HCoV-229E Mpro): 53.8 nM
IC50 (HCoV-HKU1 Mpro): 39.7 nM
IC50 (HCoV-NL63 Mpro): 105 nM
IC50 (SARS-CoV-1 Mpro): 32.1 nM
IC50 (MERS Mpro): 382 nM
IC50 (HCoV-OC43 Mpro): 66.8 nM
